Measurements published in US20230140635A1, “3-(2-(Aminoethyl)-Indol-4-ol Derivatives, Methods of Preparation Thereof, and the Use as 5-HT2 Receptor Modulators” (priority 2020, published 2023).
Where a name gives a salt, the structure may show the parent alone. Read-outs that look alike come from different tables or passages of the source.

Tests used:
5-HT2A [1] = biological target: T1, 5-HT2A (Homo sapiens, UniProt P28223); assay: 5-HT2 Gq-Dissociation BRET assay; format: cell-based; design: expressed in transfected cells; host or cells: HEK293T; conditions: for Emax: read-out: % efficacy vs 5-HT@ 100%, 5-HT2A; for IC50: HEK293T cells, 1 hour at 37° C.
5-HT2C [2] = biological target: T2, 5-HT2C (Homo sapiens, UniProt P28335); assay: cell-based; design: expressed in transfected cells; host or cells: HEK293T; conditions: for Emax: read-out: % efficacy vs 5-HT@ 100%, 5-HT2C
T2 sequence (P28335 33-458): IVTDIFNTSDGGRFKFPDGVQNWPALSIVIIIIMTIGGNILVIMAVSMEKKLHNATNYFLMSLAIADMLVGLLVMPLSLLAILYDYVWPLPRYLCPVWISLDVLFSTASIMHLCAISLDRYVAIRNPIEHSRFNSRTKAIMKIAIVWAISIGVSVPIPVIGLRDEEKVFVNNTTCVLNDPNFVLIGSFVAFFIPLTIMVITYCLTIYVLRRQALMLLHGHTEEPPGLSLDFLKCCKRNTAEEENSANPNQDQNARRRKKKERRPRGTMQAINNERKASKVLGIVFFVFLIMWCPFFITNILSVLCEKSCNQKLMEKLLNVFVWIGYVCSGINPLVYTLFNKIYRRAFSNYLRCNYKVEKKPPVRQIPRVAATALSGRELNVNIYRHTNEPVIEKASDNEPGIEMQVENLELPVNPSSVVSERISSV

5-HT2B [3] = biological target: T3, 5-HT2B (Homo sapiens, UniProt P41595); assay: cell-based; format: cell-based; design: expressed in transfected cells; host or cells: HEK293T; conditions: for Emax: 1 h, read-out: % efficacy vs 5-HT@ 100%, 5-HT2B; for IC50: HEK293T cells, 1 hour at 37° C., read-out: IC50 nM 5-HT2 Gq Dissociation BRET assay, 5-HT2B
5-HT2C [4] = biological target: T2, 5-HT2C; conditions: read-out: agonist potency at human 5-HT2C receptor; cited from earlier work
patients = conditions: cited from earlier work
5-HT3 = biological target: T4, 5-HT3 (Homo sapiens, UniProt P46098); conditions: read-out: Ki 5-HT3; cited from earlier work
T4 sequence (P46098 24-478): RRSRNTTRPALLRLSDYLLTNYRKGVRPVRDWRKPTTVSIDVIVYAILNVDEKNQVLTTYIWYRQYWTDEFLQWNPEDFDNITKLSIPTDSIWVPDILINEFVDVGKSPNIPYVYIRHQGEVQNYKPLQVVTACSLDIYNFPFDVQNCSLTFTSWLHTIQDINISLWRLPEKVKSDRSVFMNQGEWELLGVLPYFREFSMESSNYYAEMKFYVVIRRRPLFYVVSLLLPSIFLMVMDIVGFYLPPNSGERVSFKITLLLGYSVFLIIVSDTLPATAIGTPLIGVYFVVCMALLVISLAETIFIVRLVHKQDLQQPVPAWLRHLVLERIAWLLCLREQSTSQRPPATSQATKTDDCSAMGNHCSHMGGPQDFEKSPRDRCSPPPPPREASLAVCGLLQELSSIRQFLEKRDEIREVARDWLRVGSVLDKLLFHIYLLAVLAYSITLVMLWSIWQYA

5-HT2A [5] = biological target: T1, 5-HT2A; conditions: relative to serotonin at 100%; cited from earlier work
dopamine receptors = conditions: cited from earlier work
5-HT2B [6] = biological target: T3, 5-HT2B; conditions: relative to serotonin at 100%; cited from earlier work
[7] = HEK293T cells, 1 hour at 37° C., read-out: IC50 nM 5-HT2 Gq Dissociation BRET assay, 5-HT2C

T3 sequence (P41595 whole entry): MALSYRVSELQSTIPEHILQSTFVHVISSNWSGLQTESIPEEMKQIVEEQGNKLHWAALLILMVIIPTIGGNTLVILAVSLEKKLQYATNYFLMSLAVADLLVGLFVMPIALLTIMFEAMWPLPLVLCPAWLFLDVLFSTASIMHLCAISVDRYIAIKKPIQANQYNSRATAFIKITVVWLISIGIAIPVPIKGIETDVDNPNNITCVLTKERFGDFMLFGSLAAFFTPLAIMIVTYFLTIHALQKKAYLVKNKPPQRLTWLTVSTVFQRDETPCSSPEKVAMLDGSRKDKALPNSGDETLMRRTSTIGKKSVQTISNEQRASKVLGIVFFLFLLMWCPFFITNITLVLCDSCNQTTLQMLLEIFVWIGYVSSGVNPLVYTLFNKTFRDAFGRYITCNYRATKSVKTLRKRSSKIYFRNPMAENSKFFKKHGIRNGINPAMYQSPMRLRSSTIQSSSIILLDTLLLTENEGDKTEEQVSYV
T1 sequence (P28223 whole entry): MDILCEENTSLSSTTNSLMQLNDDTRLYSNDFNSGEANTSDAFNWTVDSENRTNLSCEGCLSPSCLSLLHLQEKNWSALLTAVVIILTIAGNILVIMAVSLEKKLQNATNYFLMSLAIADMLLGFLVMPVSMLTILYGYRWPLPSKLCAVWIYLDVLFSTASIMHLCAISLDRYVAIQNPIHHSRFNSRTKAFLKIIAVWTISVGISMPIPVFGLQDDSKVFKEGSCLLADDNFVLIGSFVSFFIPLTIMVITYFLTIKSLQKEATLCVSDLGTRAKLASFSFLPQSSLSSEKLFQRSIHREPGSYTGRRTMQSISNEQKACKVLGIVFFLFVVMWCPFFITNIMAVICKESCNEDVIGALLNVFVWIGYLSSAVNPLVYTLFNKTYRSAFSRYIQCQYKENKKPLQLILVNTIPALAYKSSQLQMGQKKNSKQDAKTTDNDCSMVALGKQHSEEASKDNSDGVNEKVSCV

| Structure (SMILES) | Emax (5-HT2A [1]) [%] | Emax (5-HT2B [3]) [%] | Emax (5-HT2C [2]) [%] | IC50 (5-HT2A [1]) [nM] | IC50 (5-HT2C [2]; [7]) [nM] | IC50 (5-HT2B [3]) [nM] | further results |
| --- | --- | --- | --- | --- | --- | --- | --- |
| CN(C)CCc1cn(C)c2cccc(O)c12 [Example 1, 3-(2-(dimethylamino)ethyl)-1-methyl-1H-indol-4-ol, reference compound] |  |  |  |  |  |  | EC50 (5-HT2A [1]; found by the inventors, read-out: potency at 5-HT2A receptors): ~86 nM; EC50 (5-HT2C [2]; found by the inventors, read-out: functional potency at human 5-HT2C receptors): ~10 nM |
| CN(C)CCc1cn(C)c2cccc(O)c12 [Example 1, 3-(2-(dimethylamino)ethyl)-1-methyl-1H-indol-4-ol] | 73 | 40 | 92 |  |  |  |  |
| CN(C)CCc1cn(CC(F)F)c2cccc(O)c12 [Example 3, 1-(2,2-difluoroethyl)-3-(2-(dimethylamino)ethyl)-1H-indol-4-ol] | 48 |  | 80 | 188 | 2.7 |  | 5-HT2 Gq Dissociation BRET assay, 5-HT2B, activity class (5-HT2B [3]; Not Active): Not Active |
| CCCn1cc(CCN(C)C)c2c(O)cccc21 [Example 4, 3-(2-(dimethylamino)ethyl)-1-propyl-1H-indol-4-ol] | 37 |  | 67 | 1150 | 3 |  | 5-HT2 Gq Dissociation BRET assay, 5-HT2B, activity class (5-HT2B [3]; Not Active): Not Active |
| CCCCn1cc(CCN(C)C)c2c(O)cccc21 [Example 6, 1-butyl-3-(2-(dimethylamino)ethyl)-1H-indol-4-ol, reference compound] | 18 |  | 48 | 1800 |  |  | EC50 (5-HT2C [4]): ~600 nM; 5-HT2 Gq Dissociation BRET assay, 5-HT2B, activity class (5-HT2B [3]): Not Active; IC50 (5-HT2C [2]): 1.61 nM |
| CN(C)CCc1cn(CC2CC2)c2cccc(O)c12 [Example 8, 1-(cyclopropylmethyl)-3-(2-(dimethylamino)ethyl)-1H-indol-4-ol] | 29 |  | 50 | 28 | 0.12 |  | 5-HT2 Gq Dissociation BRET assay, 5-HT2B, activity class (5-HT2B [3]; Not Active): Not Active |
| CN(C)CCc1cn(C2CCC2)c2cccc(O)c12 [Example 9, 1-cyclobutyl-3-(2-(dimethylamino)ethyl)-1H-indol-4-ol] | 53 |  | 44 | 4050 | 3 |  | 5-HT2 Gq Dissociation BRET assay, 5-HT2B, activity class (5-HT2B [3]; Not Active): Not Active |
| CN(C)CCc1cn(C2COC2)c2cccc(O)c12 [Example 10, 3-(2-(dimethylamino)ethyl)-1-(oxetan-3-yl)-1H-indol-4-ol] | 50 |  | 60 | 4000 | 1070 |  | 5-HT2 Gq Dissociation BRET assay, 5-HT2B, activity class (5-HT2B [3]; Not Active): Not Active |
| CCN(C)CCc1cn(C)c2cccc(O)c12 [Example 12, 3-(2-(ethyl(methyl)amino)ethyl)-1-methyl-1H-indol-4-ol hydrochloride] | 66 | 44 | 84 | 133 | 2.8 | 83 |  |
| CC(C)N(C)CCc1cn(C)c2cccc(O)c12 [Example 13, 3-(2-(isopropyl(methyl)amino)ethyl)-1-methyl-1H-indol-4-ol hydrochloride] | 85 | 83 | 105 | 112 | 63.5 | 42.1 |  |
| CC(C)N(CCc1cn(C)c2cccc(O)c12)C(C)C [Example 14, 3-(2-(diisopropylamino)ethyl)-1-methyl-1H-indol-4-ol hydrochloride] | 92 | 68 | 98 | 253 | 393 | 49.1 |  |
| CN(CCc1cn(C)c2cccc(O)c12)CC1CC1 [Example 16, 3-(2-((cyclopropylmethyl)(methyl)amino)ethyl)-1-methyl-1H-indol-4-ol hydrochloride] | 55 | 19 | 54 | 140 | 14.9 | 0.245 |  |
| CN(CCc1cn(C)c2cccc(O)c12)CC(F)F [Example 17, 3-(2-((2,2-difluoroethyl)(methyl)amino)ethyl)-1-methyl-1H-indol-4-ol hydrochloride] | 54 | 24 | 66 | 8400 | 833 | 376 |  |
| CCN(CC)CCc1cn(C)c2cccc(O)c12 [Example 18, 3-(2-(diethylamino)ethyl)-1-methyl-1H-indol-4-ol hydrochloride] | 60 | 56 | 70 | 241 | 31 | 64 |  |
| Cn1cc(CCNCC2CC2)c2c(O)cccc21 [Example 21, 3-(2-((cyclopropylmethyl)amino)ethyl)-1-methyl-1H-indol-4-ol hydrochloride] | 61 | 46 | 40 | 497 | 15 | 328 |  |
| Cn1cc(CCNCC(F)F)c2c(O)cccc21 [Example 22, 3-(2-((2,2-difluoroethyl)amino)ethyl)-1-methyl-1H-indol-4-ol hydrochloride] | 78 | 75 | 82 | 4200 | 1890 | 1420 |  |
| COc1ccccc1CNCCc1cn(C)c2cccc(O)c12 [Example 24, 3-(2-((2-methoxybenzyl)amino)ethyl)-1-methyl-1H-indol-4-ol hydrochloride] | 93 | 56 | 115 | 10 | 1.6 | 8.3 |  |
| COc1ccccc1CN(C)CCc1cn(C)c2cccc(O)c12 [Example 25, 3-(2-((2-methoxybenzyl)(methyl)amino)ethyl)-1-methyl-1H-indol-4-ol hydrochloride] | 39 | 14 | 70 | 770 | 2.4 | 4000 |  |
| C[C@H]1CNCCc2ccc(Cl)cc21 [Locaserin] |  |  |  |  |  |  | risk of cardiac valvulopathy (patients): no increased risk of cardiac valvulopathy |
| CN(C)CCc1c[nH]c2cccc(O)c12 [Psilocin, psilocin] |  |  |  |  |  |  | Ki (5-HT3): > 10000 nM; Efficacy (in parentheses), 5-HT2A (5-HT2A [5]): 43%; effect on dopamine receptors (dopamine receptors): no significant effect on dopamine receptors; Efficacy (in parentheses), 5-HT2B (5-HT2B [6]): 45%; % efficacy vs 5-HT@ 100%, 5-HT2B (5-HT2B [3]): 1.07 nM (63%) |
